Consider 17 compounds from patent US8394786B2, “Quinazoline derivatives” (Janssen Pharmaceutica N.V., priority 2003, dated 2013).

In one test the target is EGFR (Homo sapiens, UniProt P00533). As to the kind of experiment: In vitro inhibition of EGFR, Flash Plate or glass-fiber filter technology (C2). Type of test: biochemical. The following applies: EGFR-kinase domain, 5.0 μM unlabeled ATP, read-out: Kinase activity.(C2): pIC50 (converted). Further details: 0.5 μg EGFR-kinase domain/well. On the procedure:
The in vitro inhibition of EGFR was assessed using either the Flash Plate technology or the glass-fiber filter technology as described by Davies, S. P. et al., Biochem J. (2000), 351; p. 95-105. The Flash Plate technology is generally described by B. A. Brown et al. in High Throughput Screening (1997), p. 317-328. Editor(s): Devlin, John P. Publisher: Dekker, New York, N.Y.
In the Flash Plate EGFR kinase reaction assay, a kinase substrate consisting of biotinylated poly(L-glutamic acid-L-tyrosine) (poly(GT)biotin), is incubated with the aforementioned protein in the presence of (^33P) radiolabeled ATP. (^33P) phosphorylation of the substrate is subsequently measured as light energy emitted using a streptavidin-coated Flash Plate (PerkinElmer Life Sciences) by trapping and quantifying the binding of the biotin tagged and radiolabeled substrate.
The EGFR kinase reaction is performed at 30° C. for 60 minutes in a 96-well microtiter FlashPlate (PerkinElmer Life Sciences). For each of the tested compounds a full dose response 1·10^−6M to 1·10^−10M has been performed. IRESSA° and Tarceva™ (erlotinib) were used as reference compounds. The 100 μl reaction volume contains 54.5 mM TrisHCl pH 8.0, 10 mM MgCl2, 100 μM Na3VO4, 5.0 μM unlabeled ATP, 1 mM DTT, 0.009% BSA, 0.8 μCi AT^33P, 0.35 μg/well poly(GT)biotin and 0.5 μg EGFR-kinase domain/well.
The reaction is stopped by aspirating the reaction mixture and washing the plate 3× with 200 μl wash/stop buffer (PBS+100 mM EDTA). After the final wash step 200 μl of wash/stop buffer was added to each well and the amount of phosphorylated (^33P) Poly(GT)biotin determined by counting (30 sec/well) in a microtiterplate scintillation counter.
In the glass-fiber filter technology EGFR kinase reaction assay, a kinase substrate consisting of poly(L-glutamic acid-L-tyrosine) (poly(GT)), is incubated with the aforementioned protein in the presence of (^33P) radiolabeled ATP. (^33P) Phosporylation of the substrate is subsequently measured as radioactivity bound on a glassfiber-filter.
The EGFR kinase reaction is performed at 25° C. for 10 minutes in a 96-well microtiterplate. For each of the tested compounds a full dose response 1·10^−6M to 1·10^−10M has been performed. IRESSA° and Tarceva™ (erlotinib) were used as reference compounds. The 25 μl reaction volume contains 60 mM TrisHCl pH 7.5, 3 mM MgCl2, 3 mM Mn Cl2, 3 μM Na3VO4, 50 μg/ml PEG20000, 5.0 μM unlabeled ATP, 1 mM DTT, 0.1 μCi AT^33P, 62.5 ng/well poly(GT) and 0.5 μg EGFR-kinase domain/well.
The reaction is stopped by adding 5 μl of a 3% phosphoric acid solution. 10 μl of the reaction mixture is then spotted onto a Filtermat A filter (Wallac) and washed 3 times for 5 min. in 75 mM phosphoric acid and 1 time for 5 min. in methanol prior to drying and quantification on the Typhoon (Amersham) using a LE phosphorage storage screen.

In a further test the test system is SKOV3 cells. As to the kind of experiment: Serum starved proliferation assay on the ovarian carcinoma SKOV3 cells (C3). The format is cell-based. As to conditions: Homo sapiens, SK-OV-3, 72 h, EGF stimulated (100 ng/ml, 72 hours, serum free) or 72 hours with compounds; MTT cell viability assay; read-out: SKOV3 cell (C3): pIC50 (converted). On the procedure: The ovarian carcinoma cell line (SKOV3) was used in an epidermal growth factor stimulated cell proliferation assay, to assess the inhibitory effect of the compounds on EGF in whole cells.
In a first step the SKOV3 cells were incubated for 24 hours in the presence of 10% FCS serum. In the second step the cells were incubated with the compounds to be tested in a serum free condition (37° C. and 5% (v/v) CO2) and subsequently stimulated for 72 hours with EGF at a final concentration of 100 ng/ml. The effect of the compounds on the EGF stimulation was finally assessed in a standard MTT cell viability assay.
Alternatively, the SKOV3 cells were incubated for 24 hours in the presence of 10% FCS serum. In the second step the cells were incubated for 72 hours with the compounds to be tested and the effect of the compounds on cell proliferation was finally assessed in a standard MTT cell viability assay.
For orientation: Formazan colour is commonly taken as a measure of viable cells.

EGFR, sequence (P00533 712-979 limits assumed): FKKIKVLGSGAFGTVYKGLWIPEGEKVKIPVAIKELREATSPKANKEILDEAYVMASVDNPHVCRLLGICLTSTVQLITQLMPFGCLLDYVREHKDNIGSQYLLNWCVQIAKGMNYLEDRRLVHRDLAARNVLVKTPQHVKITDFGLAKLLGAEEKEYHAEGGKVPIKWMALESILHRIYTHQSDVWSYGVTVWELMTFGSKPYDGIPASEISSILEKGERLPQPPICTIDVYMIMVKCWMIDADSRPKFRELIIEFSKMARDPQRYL

As for `COCCCNCC(=O)N1CCOc2cc3c(ncnc3cc2OC)Nc2cc(Cl)ccc2CCCNC(=O)C1` [Compound 49, 4,6-ethanediylidenepyrimido[4,5-b][6,1,9,12]benzoxatriazacycloheptadecin-12(13H)-one, 19-chloro-8,9,10,11,14,15,16,21-octahydro-22-methoxy-10-[[(3-methoxypropyl)amino]acetyl]-], the results for the IC50 at EGFR and in the test on SKOV3 cells were 398 nM and 794 nM, respectively.
Consider `COc1cc2ncnc3c2cc1OCCN(C(=O)CN1CCOCC1)CC(=O)NCCCc1ccc(Cl)cc1N3` [Compound 50, 4,6-ethanediylidenepyrimido[4,5-b][6,1,9,12]benzoxatriazacycloheptadecin-12(13H)-one, 19-chloro-8,9,10,11,14,15,16,21-octahydro-22-methoxy-10-(4-morpholinylacetyl)-], for which the IC50 at EGFR is 79.4 nM; in the test with SKOV3 cells, 158 nM.
For the compound `COc1cc2ncnc3c2cc1OCCN(C)CC(=O)NCCCc1ccc(Cl)cc1N3` [Compound 52, 4,6-ethanediylidenepyrimido[4,5-b][6,1,9,12]benzoxatriazacycloheptadecin-12(13H)-one, 19-chloro-8,9,10,11,14,15,16,21-octahydro-22-methoxy-10-methyl-], the IC50 at EGFR is 79.4 nM; in the test with SKOV3 cells, 100 nM.
In the case of `CCN1CCOc2cc3c(ncnc3cc2OC)Nc2cc(Cl)ccc2CCCNC(=O)C1` [Compound 53, 4,6-ethanediylidenepyrimido[4,5-b][6,1,9,12]benzoxatriazacycloheptadecin-12(13H)-one, 19-chloro-10-ethyl-8,9,10,11,14,15,16,21-octahydro-22-methoxy-], the results for the IC50 at EGFR and in the test with SKOV3 cells were 200 nM and 501 nM, respectively.
Regarding `COc1cc2ncnc3c2cc1OCC1CCCN1CC(=O)NCCCc1ccc(Cl)cc1N3` (stereo not shown) [Compound 54, 1,22-ethanediylidene-5H,17H-pyrimido[4,5-b]pyrrolo[2,1-h][6,1,9,12]benzoxatriazacycloheptadecin-14(15H)-one, 7-chloro-10,11,12,13,18,19,19a,20-octahydro-24-methoxy-], the IC50 at EGFR was 126 nM; in the test on SKOV3 cells it was 1260 nM.
As to `COc1cc2ncnc3c2cc1OCCCNCC(=O)NCCCc1ccc(Cl)cc1N3` [Compound 55, 4,6-ethanediylidene-8H-pyrimido[4,5-b][6,1,10,13]benzoxatriazacyclooctadecin-13(14H)-one, 20-chloro-9,10,11,12,15,16,17,22-octahydro-23-methoxy-], the IC50 is 501 nM at EGFR and 200 nM in the test with SKOV3 cells.
For `COc1cc2ncnc3c2cc1OCC1CCCN(CC(=O)NCCCc2ccc(Cl)cc2N3)C1` (stereo not shown) [Compound 56, 14H-4,6-ethanediylidene-9,13-methano-8H-pyrimido[4,5-b][6,1,12,15]benzoxatriazacycloeicosin-15(16H)-one, 22-chloro-9,10,11,12,17,18,19,24-octahydro-26-methoxy-], the IC50 was 1580 nM on EGFR and 10000 nM with SKOV3 cells.
As for `COc1cc2ncnc3c2cc1OCC1CCN(CC1)CC(=O)NCCCc1ccc(Cl)cc1N3` [Compound 57, 13H-4,6-ethanediylidene-9,12-ethanopyrimido[4,5-b][6,1,11,14]benzoxatriazacyclononadecin-14(15H)-one, 21-chloro-8,9,10,11,16,17,18,23-octahydro-26-methoxy-], the IC50 on EGFR was 6310 nM; in the test on SKOV3 cells, 398 nM.
In the same order, the values of `COc1cc2ncnc3c2cc1OCCC1CCN(CC1)CC(=O)NCCCc1ccc(Cl)cc1N3` [Compound 58, 14H-4,6-ethanediylidene-10,13-ethano-8H-pyrimido[4,5-b][6,1,12,15]benzoxatriazacycloeicosin-15(16H)-one, 22-chloro-9,10,11,12,17,18,19,24-octahydro-27-methoxy-] are 2000 nM and 2000 nM.
In the same order, the values of `COc1cc2ncnc3c2cc1OCCCNC(=O)CNC(=O)Cc1ccc(Cl)cc1N3` [Compound 60, 4,6-ethanediylidenepyrimido[4,5-b][6,1,10,13]benzoxatriazacycloheptadecine-12,15-dione, 19-chloro-8,9,10,11,13,14,16,21-octahydro-22-methoxy-] are 15.8 nM and 2 nM.
Take `COc1cc2ncnc3c2cc1OCCCCCNCc1cc(F)c(Br)cc1N3` [Compound 61, 4,6-ethenopyrimido[4,5-b][6,1,12]benzoxadiazacyclopentadecine, 17-bromo-16-fluoro-8,9,10,11,12,13,14,19-octahydro-20-methoxy-]: the IC50 is 15.8 nM on EGFR and 398 nM in the test with SKOV3 cells.
In the case of `COc1cc2ncnc3c2cc1OCCN(CCN1CCOCC1)C(=O)CNC(=O)Cc1ccc(Cl)cc1N3` [Compound 62, 4,6-ethanediylidene-8H-pyrimido[4,5-b][6,1,9,12]benzoxatriazacyclohexadecine-11,14-dione, 18-chloro-9,10,12,13,15,20-hexahydro-21-methoxy-10-[2-(4-morpholinyl)ethyl]-], the IC50 on EGFR is 398 nM; in the test with SKOV3 cells, 5010 nM.
Consider `COCCN1CCOc2cc3c(ncnc3cc2OC)Nc2cc(Cl)ccc2CC(=O)NCC1=O` [Compound 63, 4,6-ethanediylidene-8H-pyrimido[4,5-b][6,1,9,12]benzoxatriazacyclohexadecine-11,14-dione, 18-chloro-9,10,12,13,15,20-hexahydro-21-methoxy-10-(2-methoxyethyl)-], for which the IC50 is 126 nM at EGFR and 2000 nM with SKOV3 cells.
With `COc1cc2ncnc3c2cc1OCCCCCCOc1cc(NC(=O)c2ccc(F)cc2)ccc1N3` [Compound 64, benzamide, 4-fluoro-N-(8,9,10,11,12,13-hexahydro-20-methoxy-4,6-ethanediylidene-19H-pyrimido[4,5-b][6,13,1]benzodioxaazacyclopentadecin-16-yl)-], the IC50 on EGFR was 1000 nM; in the test with SKOV3 cells, 398 nM.
For `COc1cc2ncnc3c2cc1OCCNC(=O)C(CC(C)C)NC(=O)Cc1ccc(Cl)cc1N3` (stereo not shown) [Compound 67, 4,6-ethanediylidene-8H-pyrimido[4,5-b][6,1,9,12]benzoxatriazacyclohexadecine-11,14-dione, 18-chloro-9,10,12,13,15,20-hexahydro-21-methoxy-12-(2-methylpropyl)-] the same measures were 100 nM and 501 nM.
In the case of `COc1cc2ncnc3c2cc1OCCCNC(=O)C(CC(C)C)NC(=O)Cc1ccc(Cl)cc1N3` (stereo not shown) [Compound 68, 4,6-ethanediylidenepyrimido[4,5-b][6,1,10,13]benzoxatriazacycloheptadecine-12,15-dione, 19-chloro-8,9,10,11,13,14,16,21-octahydro-22-methoxy-13-(2-methylpropyl)-], the IC50 on EGFR was 12.6 nM; in the test on SKOV3 cells it was 6.31 nM.
For `COc1cc2ncnc3c2cc1OCCCCNC(=O)CNCc1ccc(Cl)cc1N3` [Compound 101, 4,6-ethanediylidenepyrimido[4,5-b][6,1,11,14]benzoxatriazacycloheptadecin-13(8H)-one, 19-chloro-9,10,11,12,14,15,16,21-octahydro-22-methoxy-] the same measures were 251 nM and 31.6 nM.
